In general, IC50 refers to the concentration that gives 50% inhibition.

The target in this assay is GCN2 (Homo sapiens, UniProt Q9P2K8). As to the kind of experiment: TR-FRET biochemical assay for inhibition of GCN2 (Example 108, for Examples 73-105). A general note: Time-resolved FRET reads energy transfer from a long-lived donor to a nearby acceptor.
Sequence of GCN2 (Q9P2K8 whole entry): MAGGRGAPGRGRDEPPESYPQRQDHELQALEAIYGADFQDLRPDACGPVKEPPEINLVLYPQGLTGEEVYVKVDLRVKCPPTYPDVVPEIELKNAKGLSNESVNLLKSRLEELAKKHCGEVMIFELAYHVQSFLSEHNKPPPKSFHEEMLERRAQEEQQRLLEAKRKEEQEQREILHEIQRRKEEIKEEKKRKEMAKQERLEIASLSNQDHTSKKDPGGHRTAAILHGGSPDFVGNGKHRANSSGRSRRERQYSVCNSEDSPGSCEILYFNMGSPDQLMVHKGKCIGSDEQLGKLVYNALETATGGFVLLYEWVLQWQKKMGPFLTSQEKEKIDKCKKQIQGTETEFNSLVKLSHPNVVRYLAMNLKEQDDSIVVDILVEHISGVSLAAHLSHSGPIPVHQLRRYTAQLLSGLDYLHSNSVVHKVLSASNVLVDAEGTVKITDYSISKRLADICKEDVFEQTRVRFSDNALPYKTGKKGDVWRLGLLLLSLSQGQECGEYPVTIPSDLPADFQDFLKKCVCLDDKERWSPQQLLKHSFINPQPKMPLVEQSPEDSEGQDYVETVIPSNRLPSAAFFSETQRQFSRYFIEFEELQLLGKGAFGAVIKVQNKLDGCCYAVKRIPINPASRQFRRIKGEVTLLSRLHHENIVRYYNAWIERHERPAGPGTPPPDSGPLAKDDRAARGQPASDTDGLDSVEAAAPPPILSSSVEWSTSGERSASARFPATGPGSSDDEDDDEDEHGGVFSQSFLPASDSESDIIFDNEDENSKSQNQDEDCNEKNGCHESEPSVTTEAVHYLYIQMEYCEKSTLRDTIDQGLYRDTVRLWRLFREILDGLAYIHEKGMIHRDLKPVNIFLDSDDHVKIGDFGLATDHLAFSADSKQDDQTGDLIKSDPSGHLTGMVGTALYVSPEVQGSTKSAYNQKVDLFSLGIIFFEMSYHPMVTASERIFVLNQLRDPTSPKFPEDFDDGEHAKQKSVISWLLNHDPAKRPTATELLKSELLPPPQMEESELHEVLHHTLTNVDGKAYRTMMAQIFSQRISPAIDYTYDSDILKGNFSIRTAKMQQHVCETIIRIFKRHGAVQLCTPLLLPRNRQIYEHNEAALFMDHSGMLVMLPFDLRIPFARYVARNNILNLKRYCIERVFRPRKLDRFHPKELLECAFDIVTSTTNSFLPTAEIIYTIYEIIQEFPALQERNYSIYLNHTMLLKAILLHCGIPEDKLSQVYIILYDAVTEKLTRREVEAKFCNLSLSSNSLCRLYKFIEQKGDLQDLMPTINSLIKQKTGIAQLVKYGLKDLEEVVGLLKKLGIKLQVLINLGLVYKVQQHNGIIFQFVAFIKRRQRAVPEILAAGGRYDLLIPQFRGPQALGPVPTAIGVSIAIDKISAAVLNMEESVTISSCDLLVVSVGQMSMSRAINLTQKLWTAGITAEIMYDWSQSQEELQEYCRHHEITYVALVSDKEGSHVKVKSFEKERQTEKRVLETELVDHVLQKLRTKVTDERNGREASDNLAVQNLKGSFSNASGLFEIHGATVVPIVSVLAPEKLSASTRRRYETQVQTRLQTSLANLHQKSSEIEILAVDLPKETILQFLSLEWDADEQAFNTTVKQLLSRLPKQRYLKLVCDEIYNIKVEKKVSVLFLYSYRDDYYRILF
For the molecule `C#CC(C)(C)NC(=O)c1n[nH]c2c(F)c(-c3c(F)ccc(NS(=O)(=O)c4cc(Cl)cnc4OC)c3F)ccc12` [Example 89, 6-[3-(5-Chloro-2-methoxypyridine-3-sulfonamido)-2,6-difluorophenyl]-7-fluoro-N-(2-methylbut-3-yn-2-yl)-1H-indazole-3-carboxamide], the half-maximal inhibitory concentration (IC50) is < 0.5 µM.

As for `COc1ncc(Cl)cc1S(=O)(=O)Nc1ccc(F)c(-c2ccc3c(C(=O)NCC(F)(F)F)n[nH]c3c2F)c1F` [Example 90, 6-[3-(5-Chloro-2-methoxypyridine-3-sulfonamido)-2,6-difluorophenyl]-7-fluoro-N-(2,2,2-trifluoroethyl)-1H-indazole-3-carboxamide], the 50% inhibitory concentration (IC50) is < 0.5 µM.

Take `COc1ncc(Cl)cc1S(=O)(=O)Nc1ccc(F)c(-c2ccc3c(C(=O)NC(C#N)C4CC4)n[nH]c3c2F)c1F` (stereo not drawn) [Example 91, 6-[3-(5-Chloro-2-methoxypyridine-3-sulfonamido)-2,6-difluorophenyl]-N-[cyano(cyclopropyl)methyl]-7-fluoro-1H-indazole-3-carboxamide]: the IC50 was < 0.5 µM.

In the case of `C#CCNC(=O)c1n[nH]c2c(F)c(-c3c(F)ccc(NS(=O)(=O)c4cc(Cl)cnc4OC)c3F)ccc12` [Example 92, 6-[3-(5-Chloro-2-methoxypyridine-3-sulfonamido)-2,6-difluorophenyl]-7-fluoro-N-(prop-2-yn-1-yl)-1H-indazole-3-carboxamide], the 50% inhibitory concentration (IC50) is < 0.5 µM.

Consider `COc1ncc(Cl)cc1S(=O)(=O)Nc1ccc(F)c(-c2ccc3c(C(=O)NCC4CCCNC4)n[nH]c3c2F)c1F` (stereo not drawn) [Example 93, 6-[3-(5-Chloro-2-methoxypyridine-3-sulfonamido)-2,6-difluorophenyl]-7-fluoro-N-(piperidin-3-ylmethyl)-1H-indazole-3-carboxamide], for which the 50% inhibitory concentration (IC50) is < 0.5 µM.

The molecule `COc1ncc(Cl)cc1S(=O)(=O)Nc1ccc(F)c(-c2ccc3c(C(=O)NC4CCCCC4N)n[nH]c3c2F)c1F` (stereo not drawn) [Example 94, N-(2-Aminocyclohexyl)-6-[3-(5-chloro-2-methoxypyridine-3-sulfonamido)-2,6-difluorophenyl]-7-fluoro-1H-indazole-3-carboxamide] had an IC50 of 0.5 to 2.5 µM.

`COc1ncc(Cl)cc1S(=O)(=O)Nc1ccc(F)c(-c2ccc3c(C(=O)NC(C)CN)n[nH]c3c2F)c1F` (stereo not drawn) [Example 95, N-(1-Aminopropan-2-yl)-6-[3-(5-chloro-2-methoxypyridine-3-sulfonamido)-2,6-difluorophenyl]-7-fluoro-1H-indazole-3-carboxamide]: the concentration for half-maximal inhibition (IC50) is < 0.5 µM.

Turning to `COc1ncc(Cl)cc1S(=O)(=O)Nc1ccc(F)c(-c2ccc3c(C(=O)NC4CCC(=O)CC4)n[nH]c3c2F)c1F` [Example 96, 6-[3-(5-Chloro-2-methoxypyridine-3-sulfonamido)-2,6-difluorophenyl]-7-fluoro-N-(4-oxocyclohexyl)-1H-indazole-3-carboxamide], the IC50 was < 0.5 µM.

`COc1ncc(Cl)cc1S(=O)(=O)Nc1ccc(F)c(-c2ccc3c(C(=O)NC4CCC(O)C4)n[nH]c3c2F)c1F` (stereo not drawn) [Example 97, 6-[3-(5-Chloro-2-methoxypyridine-3-sulfonamido)-2,6-difluorophenyl]-7-fluoro-N-(3-hydroxycyclopentyl)-1H-indazole-3-carboxamide]: the IC50 is < 0.5 µM.

Regarding `COc1ncc(Cl)cc1S(=O)(=O)Nc1ccc(F)c(-c2ccc3c(C(=O)NC4CCCC(N)C4)n[nH]c3c2F)c1F` (stereo not drawn) [Example 98, N-(3-Aminocyclohexyl)-6-[3-(5-chloro-2-methoxypyridine-3-sulfonamido)-2,6-difluorophenyl]-7-fluoro-1H-indazole-3-carboxamide], the half-inhibitory concentration (IC50) is < 0.5 µM.

For the molecule `COc1ncc(Cl)cc1S(=O)(=O)Nc1ccc(F)c(-c2ccc3c(C(=O)NCCN4CCCC4=O)n[nH]c3c2F)c1F` [Example 99, 6-[3-(5-Chloro-2-methoxypyridine-3-sulfonamido)-2,6-difluorophenyl]-7-fluoro-N-[2-(2-oxopyrrolidin-1-yl)ethyl]-1H-indazole-3-carboxamide], the IC50 was < 0.5 µM.

In the case of `COc1ncc(Cl)cc1S(=O)(=O)Nc1ccc(F)c(-c2ccc3c(C(=O)NCC4CCN(C)C4)n[nH]c3c2F)c1F` (stereo not drawn) [Example 100, 6-[3-(5-Chloro-2-methoxypyridine-3-sulfonamido)-2,6-difluorophenyl]-7-fluoro-N-[(1-methylpyrrolidin-3-yl)methyl]-1H-indazole-3-carboxamide], the IC50 is < 0.5 µM.

(Values after patent US20220388964A1 (HiberCell, Inc., priority 2019, published 2022).)
